What was measured:
[1] = test system: HCC827 cells grafted into mice; experiment: Tumor growth in HCC827-grafted mice; type: in vivo
From the text: To model human EGFR mutated NSCLC, HCC827 cells were grafted into mice.
HCC827 or AZD9291-resistant HCC827 cancer or PC9 NSCLC cells (5×10^6) were subcutaneously injected into NOD/SCID mice (2 months old, n=6-10 for each group). […] The tumor volume was monitored twice a week for 4-8 weeks. All protocols involving animals were approved by the Research Animal Care Committee of City of Hope, in compliance with the Public Health Service Policy of the United States.

[2] = test system: EGFR-TKI resistant HCC827 lung cancer cells; experiment: Tumor growth of Tagrisso-resistant HCC827 cells grafted in mice; type: in vivo
Procedure: (§1) HCC827 or AZD9291-resistant HCC827 cancer or PC9 NSCLC cells (5×10^6) were subcutaneously injected into NOD/SCID mice (2 months old, n=6-10 for each group). After tumor size reaches approximately 100 mm^3, the mice were administered AZD9291 individually or in combination with triptolide using ALZET osmotic pump, which was implanted under the skin of the mice for a specific time period. The tumor volume was monitored twice a week for 4-8 weeks. All protocols involving animals were approved by the Research Animal Care Committee of City of Hope, in compliance with the Public Health Service Policy of the United States.

PC9 tumor = PC9 tumor growth in grafted mice following Tagrisso resistance development; type: in vivo; settings: for tumor volume relative to its volume prior to the treatment (100%): PC9-grafted mice after 4 weeks Tagrisso, Tagrisso 2x dosage (Group 1), combination (Group 3)
Procedure: as §1

HCC827 cells = experiment: Drug resistance assay (time to develop resistance, cell viability by cell counting); type: cell-based, human
HSP72 [3] = experiment: HSP72 cellular expression; type: cell-based
From the text: Triptolide by itself is a potent anti-tumor agent and functions by activating tumor suppressor protein p53 and blocking tumor promotor NF-κB.

HCC827-grafted mice = experiment: Survival rates of HCC827-grafted mice; type: in vivo; set-up: dose or concentration left out as unconfirmed; settings: Tagrisso with or without co-administered Velcade (FIG. 3)
HSP72 [4] = experiment: HSP72 protein level in Tagrisso-treated HCC827 cells; type: cell-based, human
From the text: The inventors sought to maintain high levels of HSP72 while sustaining cancer treatment with TKIs.

[5] = Adverse effect observed in treated PC9-grafted mice; type: in vivo; settings: Velcade treatment
From the text: (§2) A separate experiment was completed using PC9-grafted mice in the same treatment setting as previously described.

PC9 tumors = experiment: Tumor growth in PC9-grafted mice (Velcade study); type: in vivo; settings: same treatment setting as HCC827 study
Procedure: as §2, §1

[6] = HCC827-grafted mice, compared to untreated control (FIG. 2), Tagrisso at dose corresponding to recommended human dose, low dose of Velcade

C=CC(=O)Nc1cc(Nc2nccc(-c3cn(C)c4ccccc34)n2)c(OC)cc1N(C)CCN(C)C [Tagrisso, Osimertinib]
tumor growth [1, 6]: reduced tumor size and blocked tumor growth
tumor growth ([1]; non-resistant HCC827 cells (FIG. 5A)): tumor growth is inhibited
tumor growth ([2]; Tagrisso-resistant HCC827 grafted mice (FIG. 5A, 5B)): does not reduce tumor growth
tumor volume relative to its volume prior to the treatment (100%) (PC9 tumor; Triptolide (Group 2)): 190%
treatment time at which Tagrisso began to lose its inhibitory effect on the PC9 tumor (PC9 tumor; PC9-grafted mice, initial Tagrisso dosage): 4 weeks

C#Cc1cccc(Nc2ncnc3cc(OCCOC)c(OCCOC)cc23)c1 [Tarceva, Erlotinib]
time for HCC827 cells to develop resistance to Tarceva (HCC827 cells; Tarceva alone): about 30 days

CC(C)[C@]12O[C@H]1[C@@H]1O[C@]13[C@]1(O[C@H]1C[C@H]1C4=C(CC[C@@]13C)C(=O)OC4)[C@@H]2O [Triptolide]
HSP72 cellular expression (HSP72 [3]): may activate HSP72 cellular expression
sensitization of Tagrisso-resistant HCC827 to the EGFR-TKI ([2]; Tagrisso in the absence or presence of Triptolide (FIG. 5B)): sensitizes Tagrisso-resistant HCC827 cells to the EGFR-TKI
tumor volume relative to its volume prior to the treatment (100%) (PC9 tumor; Triptolide (Group 2)): 60%
duration of inhibitory effect on PC9 tumor growth (PC9 tumor; after 4 weeks Tagrisso pre-treatment, Tagrisso at 2x dosage (Group 1), Triptolide (Group 2)): at least 4 weeks
time HCC827 cells maintained sensitivity to Tagrisso (HCC827 cells; Tagrisso in the presence of Triptolide, 70 day duration of the study): > 70 days
time HCC827 cells maintained sensitivity to Tarceva (resistance not observed) (HCC827 cells; Tarceva when also treated with Triptolide, 70 day duration of the study): > 70 days

CC(C)C[C@H](NC(=O)[C@H](Cc1ccccc1)NC(=O)c1cnccn1)B(O)O [Velcade, Bortezomib]
survival of the mice (HCC827-grafted mice): did not improve survival of the mice
tumor growth [1, 6]: moderately inhibited tumor growth
HSP72 protein levels (HSP72 [4]): effectively maintains high levels of HSP72 protein
adverse effect [5]: skin inflammation after one month
PC9 tumor growth (PC9 tumors): little inhibitory effect on PC9 tumor growth
time HCC827 cells remained sensitive to Tagrisso (HCC827 cells; Tagrisso in the presence of Velcade, same concentration): > 60 days

Source: US11672812B2, “Methods and compositions comprising tyrosine kinase inhibitor and triptolide for the treatment of cancer” (City of Hope, priority 2020, dated 2023)
